Data as given in patent US20160115540A1, “PRODRUGS AND DRUGS” (Biogen MA Inc., priority 2013, published 2016).
Structures can show the parent of a compound that is named as a salt.

System: jejunum
Assay: Transcriptional profiling on Affymetrix GeneChips, single dose, naïve mice: jejunum
Format: in vivo, C57BL/6 mice
Conditions: for Number of differentially expressed genes identified: Jenjunum: Naïve, Single Dose
Experimental: Treated mice were sacrificed at 2, 7, or 12 hours. Tissues (liver, spleen, kidney, jejunum, cortex, hippocampus, striatum and whole blood) were collected and analyzed by transcriptional profiling on mouse Affymetrix GeneChips.
Tissues (liver, spleen, kidney, jejunum, cortex, hippocampus, striatum and whole blood) were collected and analyzed by transcriptional profiling on mouse Affymetrix GeneChips.
Animals were exposed to CO2 and whole blood collected via cardiac puncture. Two 100 μl aliquots of whole blood were collected in 1.5 mL microcentrifuge tubes and snap frozen in liquid nitrogen. Peripheral (liver, spleen, kidney and jejunum) and CNS brain (cerebellum, hippocampus, striatum and cortex) tissues were harvested and snap frozen in liquid nitrogen, with special care taken to collect tissues of similar size and from the same location. All samples were stored at −80° C. until RNA extraction was conducted.
For RNA preparation, frozen tissues were placed in 2 mL RNAse-free 96-well blocks with 1.5 mL QIAzol Lysis Reagent (QIAgen) and a 3.2 mm stainless steel bead (BioSpec Products, Bartlesville, Okla.). Tissues were disrupted for four cycles of 45 seconds in a Mini-Beadbeater (Biospec Products). RNA was extracted in chloroform and the aqueous phase was mixed with an equal volume of 70% ethanol. Extracted RNA was applied to RNeasy 96 plates and purified by the spin method according to the manufacturer's protocol (RNeasy 96 Universal Tissue Protocol, QIAgen, Hilden Germany).
Automated sample amplifications and biotin labelings were carried out using the NuGEN Ovation RNA Amplification system V2 (Cat #3100), Ovation WB reagent (Cat #1300) and Encore Biotin module (Cat #4200) (NuGEN Technologies, Inc, San Carlos, Calif.) according to manufacturer's recommendations using an Arrayplex automated liquid handler (Beckman Coulter, Indianapolis, Ind.). Two micrograms of biotin labeled sscDNA probe were hybridized to Affymetrix GeneChip Affymetrix HT_MG-430_PM plate arrays with modified conditions as described in Allaire et al. Washing and staining of the hybridized arrays were completed as described in the GeneChip Expression analysis technical manual for HT plate arrays using the Genechip® Array Station (Affymetrix, Santa Clara, Calif.) with modifications as described in Allaire et al. The processed GeneChip® plate arrays were scanned using GeneTitan scanner (Affymetrix, Santa Clara, Calif.).
Affymetrix scans were subject to quality control (QC) measures. These tests included a visual inspection of the distribution of raw signal intensities and an assessment of RNA degradation, relative log expression (RLE), and normalized unsealed standard error (NUSE). All sample scans that passed these QC metrics were included in the analysis.
All CEL files were subjected to GC-content-based Robust Multi-array Average (GCRMA) normalization (version 2.20.0) (Irizarry R A, et al. Nucleic Acids Res 2003; 31:e15; Li C, et al. Genome Biol 2001; 2:[…]0032). Expression levels were log (base 2) transformed.
All calculations and analyses were carried out using R (version 2.11.1) and Bioconductor computational tools (Gentleman R. Springer Science+Business Media 2005).

SMILES: COC(=O)/C=C/C(=O)OC [DMF, dimethyl fumarate]
- Pir (1429001_PM_at) differential expression (Jejunum, 12 hr): 3.79
- Setd4 (1435405_PM_at) differential expression (Jejunum, 12 hr): 1.66
- Slc5a4b (1422757_PM_at) differential expression (Jejunum, 12 hr): 2.21
- Ugt2b5 (1419622_PM_at) differential expression (Jejunum, 12 hr): 4.92
- Ugt2b36 (1455595_PM_at) differential expression (Jejunum, 12 hr): 2.94
- Number of differentially expressed genes identified: Jenjunum (100 mpk DMF-vs-100 mpk MMF, 2 h after last dosing): 1
- Number of differentially expressed genes identified: Jenjunum (100 mpk DMF-vs-100 mpk MMF, 7 h after last dosing): 2
- Number of differentially expressed genes identified: Jenjunum (100 mpk DMF-vs-100 mpk MMF, 12 h after last dosing): 0
- Number of differentially expressed genes identified: Jenjunum (100 mpk, vs Vehicle, 2 h after last dosing): 62
- Number of differentially expressed genes identified: Jenjunum (100 mpk, vs Vehicle, 7 h after last dosing): 44
- Number of differentially expressed genes identified: Jenjunum (100 mpk, vs Vehicle, 12 h after last dosing): 37
- FC 9130221J17Rik (1443159_PM_at) (jejunum, 100DMF-vs-Veh, 2 h): 2.30
- FC Acss2 (1446542_PM_at) (jejunum, 100DMF-vs-Veh, 2 h): 1.68
- FC Akr1b8 (1448894_PM_at) (jejunum, 100DMF-vs-Veh, 2 h): 7.35
- FC Akr1c13 (1418672_PM_at) (jejunum, 100DMF-vs-Veh, 2 h): 1.62
- FC Akr1c19 (1455454_PM_at) (jejunum, 100DMF-vs-Veh, 2 h): 2.45
- FC Areg (1421134_PM_at) (jejunum, 100DMF-vs-Veh, 2 h): 3.58
- FC Cbr1 (1460196_PM_at) (jejunum, 100DMF-vs-Veh, 2 h): 1.55
- FC Cbr3 (1427912_PM_at) (jejunum, 100DMF-vs-Veh, 2 h): 54.72
- FC Ces1e (1419510_PM_at) (jejunum, 100DMF-vs-Veh, 2 h): 1.85
- FC Ces1f (1424266_PM_s_at) (jejunum, 100DMF-vs-Veh, 2 h): 2.48
- FC Ces1g (1449486_PM_at) (jejunum, 100DMF-vs-Veh, 2 h): 4.06
- FC Dnase2a (1430135_PM_at) (jejunum, 100DMF-vs-Veh, 2 h): 1.77
- FC Dppa5a (1416552_PM_at) (jejunum, 100DMF-vs-Veh, 2 h): 3.07
- FC Dusp4 1428834_PM_at (jejunum, 100DMF-vs-Veh, 2 h): 1.51
- FC Entpd5 (1433763_PM_at) (jejunum, 100DMF-vs-Veh, 2 h): 1.53
- FC Ereg (1419431_PM_at) (jejunum, 100DMF-vs-Veh, 2 h): 2.50
- FC Ero1l (1419030_PM_at) (jejunum, 100DMF-vs-Veh, 2 h): 1.92
- FC Ero1l (1449324_PM_at) (jejunum, 100DMF-vs-Veh, 2 h): 1.50
- FC Esd (1441604_PM_at) (jejunum, 100DMF-vs-Veh, 2 h): 1.71
- FC Fam13a (1456611_PM_at) (jejunum, 100DMF-vs-Veh, 2 h): 1.54
- FC Gclc (1424296_PM_at) (jejunum, 100DMF-vs-Veh, 2 h): 4.25
- FC Gclc (1455959_PM_s_at) (jejunum, 100DMF-vs-Veh, 2 h): 3.13
- FC Gsr (1421816_PM_at) (jejunum, 100DMF-vs-Veh, 2 h): 2.23
- FC Gss (1441931_PM_x_at) (jejunum, 100DMF-vs-Veh, 2 h): 1.95
- FC Gss (1448273_PM_at) (jejunum, 100DMF-vs-Veh, 2 h): 1.67
- FC Gsta2 (1421040_PM_a_at) (jejunum, 100DMF-vs-Veh, 2 h): 3.82
- FC Gsta3 (1423436_PM_at) (jejunum, 100DMF-vs-Veh, 2 h): 3.23
- FC Gsta3 (1423437_PM_at) (jejunum, 100DMF-vs-Veh, 2 h): 4.03
- FC Gstm1 (1416416_PM_x_at) (jejunum, 100DMF-vs-Veh, 2 h): 2.30
- FC Gstm1 (1425627_PM_x_at) (jejunum, 100DMF-vs-Veh, 2 h): 2.57
- FC Gstm1 (1448330_PM_at) (jejunum, 100DMF-vs-Veh, 2 h): 2.47
- FC Gstm3 (1427473_PM_at) (jejunum, 100DMF-vs-Veh, 2 h): 2.37
- FC Gstm3 (1427474_PM_s_at) (jejunum, 100DMF-vs-Veh, 2 h): 1.56
- FC LOC100504040 (1457279_PM_at) (jejunum, 100DMF-vs-Veh, 2 h): 2.18
- FC Mafg (1448916_PM_at) (jejunum, 100DMF-vs-Veh, 2 h): 2.20
- FC Nqo1 (1423627_PM_at) (jejunum, 100DMF-vs-Veh, 2 h): 2.16
- FC Osgin1 (1424022_PM_at) (jejunum, 100DMF-vs-Veh, 2 h): 2.08
- FC Prss8 (1418320_PM_at) (jejunum, 100DMF-vs-Veh, 2 h): 2.60
- FC Ptk6 (1442923_PM_at) (jejunum, 100DMF-vs-Veh, 2 h): −2.42
- FC Setd4 (1425239_PM_at) (jejunum, 100DMF-vs-Veh, 2 h): 2.09
- FC Setd4 (1435405_PM_at) (jejunum, 100DMF-vs-Veh, 2 h): 1.91
- FC Setd4 (1460373_PM_a_at) (jejunum, 100DMF-vs-Veh, 2 h): 1.91
- FC Slc35e3 (1428805_PM_at) (jejunum, 100DMF-vs-Veh, 2 h): 1.53
- FC Slc40a1 (1417061_PM_at) (jejunum, 100DMF-vs-Veh, 2 h): 2.33
- FC Srr (1453421_PM_at) (jejunum, 100DMF-vs-Veh, 2 h): 1.99
- FC Srxn1 (1425351_PM_at) (jejunum, 100DMF-vs-Veh, 2 h): 1.71
- FC Tifa (1426501_PM_a_at) (jejunum, 100DMF-vs-Veh, 2 h): −2.43
